# Results as given in patent publication US11124523B2, “2,6-dioxaspiro [4,5] decane derivatives and preparation method therefor and pharmaceutical applications thereof” (SHANDONG LUYE PHARMACEUTICAL CO., LTD., priority 2017, dated 2021).
# pEC50: −log10 of the molar value. Counter-ions that a name gives are not always drawn.
# Tests used:
# [1] = Metabolic stability in liver microsomes; type: in vitro ADME; conditions: pH 7.4; human liver microsomes 0.5 mg protein/mL; 45 mg microsome protein/g liver, 20 g liver/kg; read-out: Intrinsic Clearance CLint(liver) in Human Liver
# Description: Test 3: Metabolic Stability in Liver Microsomes
# 3.1 Experimental Purpose: To test the metabolic stability of the compounds of the present disclosure in human liver microsomes
# a. All samples as well as testosterone, diclofenac and propafenone acting as reference substances were dissolved in DMSO to a storage concentration of 10 mM.
# b. Intermediate Solution: 5 μL of the substance to be tested or the reference substance was diluted with 45 μL of DMSO (with 450 μL of 1:1 methanol/water).
# c. Working Solution: the intermediate solution was diluted with 450 μL of 100 mM potassium phosphate buffer solution (pH 7.4).
# Assay Buffer: 100 mM potassium phosphate buffer (pH 7.4) • 10 mM MgCl2
# Liver Microsome Solution (final concentration: 0.5 mg protein/mL):
# Human liver microsomes, obtained from BD, Cat No. 452117, Lot No. 38291
# b. 10 μL of the working solution containing the substance to be tested or the reference substance was added to each of plates (T0, T5, T10, T20, T30, T60, NCF60).
# c. The liver microsome solution was dispensed into a 96-well plate in an amount of 680 μL/well, then 80 was added, and then T was added to each of the plates. The above incubation plate was placed at 37° C. and pre-incubated for approximately 10 minutes.
# d. 10 μL of 100 mM potassium phosphate buffer was added to each well in the NCF60 plate.
# e. After the pre-incubation was finished, the NADPH regeneration system working solution was dispensed into the 96-well plate in an amount of 90 μL/well, and then added to each of the plates in an amount of 10 μL/well to start the reaction.
# f. The plates were incubated for an appropriate time (e.g., 5, 10, 20, 30, or 60 minutes).
# g. The stop solution (refrigerated at 4° C., containing 100 ng/mL Tolbutamide and 100 ng/mL Labetalol) was added to each sample well in an amount of 300 μL/well.
# h. The sample plates were shaken well for about 10 minutes and centrifuged at 4,000 rpm for 20 minutes at 4° C. During the centrifugation, 300 μL of HPLC water was added to each well, and 100 μL of the supernatant was taken for LC-MS/MS analysis.
# T1/2 and Clint(mic) were calculated by the following formula: […]
# Each gram of liver contained 45 mg of microsome protein, and the liver weight was 20 g/kg in a human.
# Ct was the concentration at time t, t was the incubation time, C0 was the concentration at time 0, Ke was an elimination rate constant, Clint(mic) was the intrinsic clearance in liver microsomes, and Clint(liver) was the intrinsic clearance in liver. CLint(mic)=0.693/half-life/mg of microsome protein per mL(concentration of microsomes during incubation) CLint(liver)=CLint(mic)×mg of microsome protein/g of liver weight×a ratio of liver weight to body weight 3.4 Test Results
# [2] = target: T1, human μ-subtype opioid receptor (hMOR) (Homo sapiens (Human), UniProt P35372); test: MOR cAMP agonist activity test; type: cell-based; conditions: for Emax: maximum effect of enkephalin DAMGO was 100%
# Description: Test 1: MOR cAMP Agonist Activity Test
# 1.1 Experimental Purpose: To test the cAMP agonist activity of the compounds of the present disclosure on the human μ-subtype opioid receptor (hMOR).
# a. Compound samples were dissolved in DMSO to a storage concentration of 10 mM.
# (§1) b. A series of diluted samples were formulated on a 384-well LDV plate. A total of 11 concentration points were obtained by 3.162-fold gradient dilution.
# c. The series of diluted samples were transferred to an experimental plate (Corning-3824) by using an Echo machine, wherein 30 nL was transferred corresponding to each well.
# The experiment was performed using a cAMP detection kit from Cisbio (Cisbio #62AM4PEJ).
# a. Assay buffer and stimulation buffer (STB) required for the experiment were formulated.
# Stimulation Buffer: formulated with the assay buffer, containing 5 μM NKH477 (CAS: 138605-00-2) and 200 μM IBMX (3-isobutyl-1-methylxanthine)
# b. […] The number of cells in the well was 10,000 cells/well.
# c. The experimental plate was placed in a 37° C. constant-temperature incubator for incubation. The incubation was performed for 40 minutes.
# d. A cAMP standard concentration curve was prepared. The first concentration point was at 2848 nM, and a total of sixteen detection concentrations were obtained by 4-fold gradient dilution. There were three replicates for each concentration point.
# e. The cAMP detection kit from Cisbio was provided therein with a d2-labeled cAMP reagent (d2 reagent) and an Eu-labeled cAMP antibody reagent (Crypate reagent). The above two reagents were formulated according to the kit instructions, and then added to the sample experimental plate and to the cAMP standard concentration experimental plate, respectively. It was necessary to add 5 μL of the d2 reagent and then 5 μL of the Cryptate reagent to each well.
# f. After the experimental plates were left at room temperature for 60 minutes, the experimental plates were read on the Envision.
# [3] = target: T1, human μ-subtype opioid receptor (hMOR); test: MOR β-arrestin-2 agonist activity test; type: cell-based; conditions: for Emax: maximum effect of enkephalin DAMGO was 100%, about 0% = no actual agonist activity
# Description: Test 2: β-Arrestin-2 Agonist Activity Test
# 2.1 Experimental Purpose: To test the β-arrestin-2 agonist activity of the compounds of the present disclosure on the human μ-subtype opioid receptor (hMOR).
# a. All samples were dissolved in DMSO to a storage concentration of 10 mM.
# as §1
# c. The series of diluted samples were transferred to an experimental plate by using an Echo machine, wherein 60 nL of the compound was transferred corresponding to each well.
# d. 60 nL of 3.33 mM DAMGO (as HPE) and 60 nL of DMSO (as ZPE) were transferred to the corresponding positions on the experimental plate by using the Echo machine.
# The experiment was performed using PathHunter Detection Kit from DiscoveRX Cooperation (DiscoveRX #93-0213C3)
# a. Assay buffer and PathHunter detection reagent required for the experiment were formulated.
# Assay Buffer: 1×DPBS buffer
# PathHunter Detection Reagent: The kit was provided therein with three constituents.
# c. The experimental plate was centrifuged at 300 rpm for 30 s and incubated at room temperature for 2 hours.
# d. 6 μL of the PathHunter detection reagent was added to each well of the experimental plate.
# e. The experimental plate was centrifuged at 300 rpm for 30 seconds, then left at room temperature for 60 minutes, and then read on the Envision.
# [4] = Pharmacokinetics of the compounds in rats; type: in vivo, rat
# Description: 6.1 Experimental Purpose: To measure, using a LC/MS/MS method, the medicament concentrations of the compound in plasma and specific tissues at different time points after the compound was administered by a single intravenous injection (IV) to 7-9-week-old male SD rats used as test animals, to study on the pharmacokinetic behavior of the compound of the present disclosure in rats, and to evaluate the pharmacokinetic characteristics thereof. 6.2 Compound Formulation
# Each of them was formulated at a concentration of 1 mg/mL and was used for IV (intravenous injection) administration.
# The actual weights of the rats were weighed on the day of administration and volumes to be administered were calculated. The above formulated solutions to be administered were administered by injection into caudal veins of rats.
# About 0.2 mL of whole blood samples were collected by means of jugular vein puncture at the time set in the experimental protocol, and the actual blood collection time was recorded in the experimental records. All the blood samples were added to labeled plastic centrifuge tubes to which K2-EDTA anticoagulant was added in advance. After the blood samples were collected, they were centrifuged at 3,000 g for 10 minutes at 4° C. to prepare the supernatant plasma, and the plasma was stored at −20° C. or a lower temperature for LC-MS/MS analysis.
# The concentrations of the compounds in rat plasma were measured by using high-performance liquid chromatography-tandem mass spectrometry (LC-MS/MS). The retention durations of the compounds and internal standard, chromatogram acquisition, and integration of chromatograms were processed using the software Analyst (Applied Biosystems), and data statistics were processed using the software Watson LIMS (Thermo Fisher Scientific) or Analyst (Applied Biosystems). The plasma concentration was processed using a non-compartmental model of WinNonlin™ Version 6.3 (Pharsight, Mountain View, Calif.) which was a pharmacokinetic software, and the pharmacokinetic parameters were calculated using a linear logarithmic trapezoidal method.
# [5] = >30000 nM = greater than the highest detection concentration, read-out: MOR β-arrestin-2 EC50
smiles,measurement,setting,value
COc1ccsc1CNCC[C@@]1(c2ccc(F)cc2)CCO[C@]2(CCOC2)C1 [(+)-3],CLint scaled,[1],39 mL/min/kg
same,pEC50,[2],8.52
same,Emax,[2],82%
same,pEC50,[3]; [5],< 4.52
same,Emax,[3],~0%
Fc1ccc([C@]2(CCNCc3scc4c3CCC4)CCO[C@]3(CCOC3)C2)nc1 [(+)-5],Emax,[2],96.5%
same,Apparent Clearance Cl,"[4]; male SD rats, single IV, mg/Kg: Comparative Compound 1 1.80, (+)-5 2.40, (+)-16 1.76, HCl salt of (+)-23 1.71",58.9 mL/min/kg
same,Vd,"[4]; male, SD, rat, plasma, iv, read-out: Apparent Distribution Volume Vd",3.6 L/kg
same,AUC(0-inf),"[4]; male, SD, rat, plasma, iv, read-out: Area under the Curve AUC0-inf",1.4 µM·h
same,half-life,"[4]; male, SD, rat, plasma, iv, read-out: Hal-life T1/2 (converted)",54 min
same,C0,"[4]; male, SD, rat, plasma, iv, read-out: Initial Concentration C0",1810 nM
same,Brain/Plasm Ratio B/P ratio,"[4]; rats, IV, sampling point […], mg/Kg: Comparative Compound 1 0.56, (+)-5 2.40, (+)-16 1.76, HCl salt of (+)-23 1.71",2.19
same,pEC50,[3]; [5],< 4.52
same,Emax,[3],~0%
Fc1ccnc([C@]2(CCNCc3scc4c3CCC4)CCO[C@]3(CCOC3)C2)c1 [(+)-6],CLint scaled,[1],86 mL/min/kg
same,pEC50,[2],8.74
same,Emax,[2],86.5%
same,pEC50,[3]; [5],< 4.52
same,Emax,[3],~0%
c1ccc([C@]2(CCNCc3scc4c3COC4)CCO[C@]3(CCOC3)C2)nc1 [(+)-7],pEC50,[2],7.85
same,Emax,[2],90.4%
same,pEC50,[3]; [5],< 4.52
same,Emax,[3],~0%
Cc1cc(C)cc(CNCC[C@@]2(c3ccccn3)CCO[C@]3(CCOC3)C2)c1 [(+)-10],pEC50,[2],7.94
same,Emax,[2],96.6%
same,pEC50,[3]; [5],< 4.52
same,Emax,[3],~0%
c1ccc([C@]2(CCNCc3cccc4c3CCCC4)CCO[C@]3(CCOC3)C2)nc1 [(+)-11],CLint scaled,[1],72.5 mL/min/kg
same,pEC50,[2],8.85
same,Emax,[2],87.2%
same,pEC50,[3]; [5],< 4.52
same,Emax,[3],~0%
Cc1ccsc1CNCC[C@@]1(c2ccc(F)cc2)CCO[C@]2(CCOC2)C1 [(+)-13],pEC50,[2],8.39
same,Emax,[2],61.2%
same,pEC50,[3]; [5],< 4.52
same,Emax,[3],~0%
Fc1ccc([C@]2(CCNCc3cccs3)CCO[C@]3(CCOC3)C2)cc1 [(+)-14],Emax,[3],~0%
Fc1ccc([C@]2(CCNCc3ccc(Cl)cc3)CCO[C@]3(CCOC3)C2)nc1 [(+)-17],pEC50,[2],8.05
same,Emax,[2],78.5%
same,pEC50,[3]; [5],< 4.52
same,Emax,[3],~0%
c1ccc([C@]2(CCNCc3cccc4c3CCC4)CCO[C@]3(CCOC3)C2)nc1 [(+)-19],pEC50,[2],8.35
same,Emax,[2],69.9%
same,pEC50,[3]; [5],< 4.52
same,Emax,[3],~0%
Clc1ccc(CNCC[C@@]2(c3ccccn3)CCO[C@]3(CCOC3)C2)cc1Cl [(+)-20],pEC50,[2],8.51
same,Emax,[2],99.6%
same,pEC50,[3]; [5],< 4.52
same,Emax,[3],~0%
Clc1cc(Cl)cc(CNCC[C@@]2(c3ccccn3)CCO[C@]3(CCOC3)C2)c1 [(+)-21],pEC50,[2],8.66
same,Emax,[2],92.3%
same,pEC50,[3]; [5],< 4.52
same,Emax,[3],~0%
c1ccc([C@]2(CCN[C@H]3CCc4ccccc43)CCO[C@]3(CCOC3)C2)nc1 [(+)-25],Emax,[2],90%
same,pEC50,[3]; [5],< 4.52
same,Emax,[3],~0%
Fc1ccc([C@]2(CCN[C@H]3CCCc4ccccc43)CCO[C@]3(CCOC3)C2)nc1 [(+)-26],pEC50,[2],9.70
same,Emax,[2],96%
same,pEC50,[3]; [5],< 4.52
same,Emax,[3],~0%
c1ccc([C@]2(CCN[C@H]3CCCc4ccccc43)CCO[C@]3(CCOC3)C2)nc1 [(+)-27],pEC50,[2],9.10
same,Emax,[2],91%
same,pEC50,[3]; [5],< 4.52
same,Emax,[3],~0%
Fc1ccc([C@]2(CCNCc3scc4c3CCC4)CCO[C@]3(CCOC3)C2)cc1 [Formate Salt of (+)-4],pEC50,[2],10.15
same,pEC50,[3]; [5],< 4.52
same,Emax,[3],~0%
Fc1ccc([C@]2(CCNCc3scc4c3COC4)CCO[C@]3(CCOC3)C2)cc1 [Hydrochloride Salt of (+)-12],pEC50,[2],8.17
same,pEC50,[3]; [5],< 4.52
same,Emax,[3],~0%
Fc1ccc([C@]2(CCNCc3cc(Cl)cc(Cl)c3)CCO[C@]3(CCOC3)C2)nc1 [Hydrochloride Salt of (+)-24],pEC50,[2],9.70
same,Emax,[2],95%
same,pEC50,[3]; [5],< 4.52
same,Emax,[3],~0%
"c1ccc([C@]2(CCNCc3cc4c(s3)CCC4)CCOC3(CCCC3)C2)nc1 [compound 2, reference compound]",Emax,[2],105%
same,pEC50,[3],6.30
same,Emax,[3],35.2%
